Test results taken from the NIST ThermoML archive (doi:10.1016/j.jct.2004.11.009).

Experiment: xn = mol fraction of the nth substance listed
Details: 101.33 kPa, Liquid

Cc1cccnc1 [3-methylpyridine] + O
Details	mass density [kg/m3]	viscosity [mPa·s]
293.15 K, x1 = 0.0101	998	1.149
293.15 K, x1 = 0.0211	997.8	1.301
293.15 K, x1 = 0.033	997.5	1.467
293.15 K, x1 = 0.0462	997.2	1.626
293.15 K, x1 = 0.114	995.4	2.301
293.15 K, x1 = 0.225	992.1	2.914
293.15 K, x1 = 0.36	986.9	3.04
293.15 K, x1 = 0.436	983.1	2.9
293.15 K, x1 = 0.5	979.7	2.733
293.15 K, x1 = 0.6	974.3	2.386
293.15 K, x1 = 0.7	969	2.021
293.15 K, x1 = 0.8	964.1	1.655
293.15 K, x1 = 0.9	959.8	1.31
293.15 K, x1 = 1	956	0.9459
303.15 K, x1 = 0.0101	995.1	0.913
303.15 K, x1 = 0.0211	994.4	1.021
303.15 K, x1 = 0.033	993.7	1.133
303.15 K, x1 = 0.0462	992.9	1.255
303.15 K, x1 = 0.114	989.3	1.705
303.15 K, x1 = 0.225	984	2.022
303.15 K, x1 = 0.36	977.8	2.034
303.15 K, x1 = 0.436	973.6	1.938
303.15 K, x1 = 0.5	970.2	1.83
303.15 K, x1 = 0.6	964.5	1.638
303.15 K, x1 = 0.7	959.4	1.449
303.15 K, x1 = 0.8	954.6	1.255
303.15 K, x1 = 0.9	950.3	1.049
303.15 K, x1 = 1	946.6	0.8318
313.15 K, x1 = 0.0101	991.2	0.731
313.15 K, x1 = 0.0211	990.2	0.8139
313.15 K, x1 = 0.033	989.2	0.8959
313.15 K, x1 = 0.0462	988	0.98
313.15 K, x1 = 0.114	982.9	1.307
313.15 K, x1 = 0.225	976.4	1.572
313.15 K, x1 = 0.36	968.9	1.588
313.15 K, x1 = 0.436	964.7	1.511
313.15 K, x1 = 0.5	961	1.43
313.15 K, x1 = 0.6	955.3	1.286
313.15 K, x1 = 0.7	950.2	1.149
313.15 K, x1 = 0.8	945.5	1.018
313.15 K, x1 = 0.9	941.3	0.884
313.15 K, x1 = 1	937.7	0.7352
323.15 K, x1 = 0.0101	986.6	0.6101
323.15 K, x1 = 0.0211	985.2	0.6693
323.15 K, x1 = 0.033	983.7	0.7356
323.15 K, x1 = 0.0462	982.3	0.7921
323.15 K, x1 = 0.114	975.6	1.048
323.15 K, x1 = 0.225	967.7	1.23
323.15 K, x1 = 0.36	959.4	1.255
323.15 K, x1 = 0.436	954.9	1.207
323.15 K, x1 = 0.5	951.2	1.162
323.15 K, x1 = 0.6	945.5	1.071
323.15 K, x1 = 0.7	940.5	0.9777
323.15 K, x1 = 0.8	935.9	0.8686
323.15 K, x1 = 0.9	931.8	0.7536
323.15 K, x1 = 1	928.3	0.6565
333.15 K, x1 = 0.0101	981.4	0.5203
333.15 K, x1 = 0.0211	979.6	0.5735
333.15 K, x1 = 0.033	977.7	0.6346
333.15 K, x1 = 0.0462	975.8	0.6624
333.15 K, x1 = 0.114	967.9	0.866
333.15 K, x1 = 0.225	958.7	1.015
333.15 K, x1 = 0.36	950	1.042
333.15 K, x1 = 0.436	945.4	1.004
333.15 K, x1 = 0.5	941.8	0.9701
333.15 K, x1 = 0.6	936.1	0.8988
333.15 K, x1 = 0.7	931.1	0.8305
333.15 K, x1 = 0.8	926.7	0.7562
333.15 K, x1 = 0.9	922.7	0.6699
333.15 K, x1 = 1	919.3	0.5936
343.15 K, x1 = 0.0101	975.8	0.4504
343.15 K, x1 = 0.0211	973.7	0.4888
343.15 K, x1 = 0.033	971.7	0.5355
343.15 K, x1 = 0.0462	969.4	0.5782
343.15 K, x1 = 0.114	960.5	0.7454
343.15 K, x1 = 0.225	950.2	0.8494
343.15 K, x1 = 0.36	940.4	0.8766
343.15 K, x1 = 0.436	936	0.8557
343.15 K, x1 = 0.5	932.3	0.8315
343.15 K, x1 = 0.6	926.8	0.786
343.15 K, x1 = 0.7	921.8	0.7335
343.15 K, x1 = 0.8	917.4	0.673
343.15 K, x1 = 0.9	913.6	0.6135
343.15 K, x1 = 1	910.3	0.539
